The test system of the test is IL-1β production in PMA-differentiated THP-1 cells. Put plainly: IL-1β production in PMA-differentiated THP-1 cells stimulated with gramicidin (hTHP-1 assay containing 2% fetal bovine serum; Procedures 1-3). In kind it is cell-based, human. The settings on record: read-out: hTHP-1 IC50 (Average IC50 of compounds in hTHP-1 assay). The protocol:
The following protocol is suitable for testing the activity of the compounds disclosed herein.
Procedure 1: IL-1β Production in PMA-Differentiated THP-1 Cells Stimulated with Gramicidin
THP-1 cells were purchased from the American Type Culture Collection and sub-cultured according to instructions from the supplier. Cells were cultured in complete RPMI 1640 (containing 10% heat inactivated FBS, penicillin (100 units/ml) and streptomycin (100 μg/ml)), and maintained in log phase prior to experimental setup. Prior to the experiment, compounds were dissolved in dimethyl sulfoxide (DMSO) to generate a 30 mM stock. The compound stock was first pre-diluted in DMSO to 3, 0.34, 0.042 and 0.0083 mM intermediate concentrations and subsequently spotted using Echo550 liquid handler into an empty 384-well assay plate to achieve desired final concentration (e.g. 100, 33, 11, 3.7, 1.2, 0.41, 0.14, 0.046, 0.015, 0.0051, 0.0017 μM). DMSO was backfilled in the plate to achieve a final DMSO assay concentration of 0.37%. The plate was then sealed and stored at room temperature until required.
THP-1 cells were treated with PMA (Phorbol 12-myristate 13-acetate) (20 ng/ml) for 16-18 hours. On the day of the experiment the media was removed and adherent cells were detached with trypsin for 5 minutes. Cells were then harvested, washed with complete RPMI 1640, spun down, and resuspended in RPMI 1640 (containing 2% heat inactivated FBS, penicillin (100 units/ml) and streptomycin (100 μg/ml). The cells were plated in the 384-well assay plate containing the spotted compounds at a density of 50,000 cells/well (final assay volume 50 μl). Cells were incubated with compounds for 1 hour and then stimulated with gramicidin (5 μM) (Enzo) for 2 hours. Plates were then centrifuged at 340 g for 5 min. Cell free supernatant (40 μL) was collected using a 96-channel PlateMaster (Gilson) and the production of IL-1β was evaluated by HTRF (cisbio). The plates were incubated for 18 h at 4° C. and read using the preset HTRF program (donor emission at 620 nm, acceptor emission at 668 nm) of the SpectraMax i3x spectrophotometer (Molecular Devices, software SoftMax 6). A vehicle only control and a dose titration of CRID3 (100-0.0017 μM) were run concurrently with each experiment.
Procedure 2: IL-1β Production in PMA-Differentiated THP-1 Cells Stimulated with Gramicidin
THP-1 cells were purchased from the American Type Culture Collection and sub-cultured according to instructions from the supplier. Prior to experiments, cells were cultured in complete RPMI 1640 (containing 10% heat inactivated FBS, penicillin (100 units/ml) and streptomycin (100 μg/ml)), and maintained in log phase prior to experimental setup. Prior to the experiment THP-1 were treated with PMA (Phorbol 12-myristate 13-acetate) (20 ng/ml) for 16-18 hours. Compounds were dissolved in dimethyl sulfoxide (DMSO) to generate a 30 mM stock. On the day of the experiment the media was removed and adherent cells were detached with trypsin for 5 minutes. Cells were then harvested, washed with complete RPMI 1640, spun down, resuspended in RPMI 1640 (containing 2% heat inactivated FBS, penicillin (100 units/ml) and streptomycin (100 μg/ml). The cells were plated in a 384-well plate at a density of 50,000 cells/well (final assay volume 50 μl). Compounds were first dissolved in assay medium to obtain a 5× top concentration of 500 μM. 10 step dilutions (1:3) were then undertaken in assay medium containing 1.67% DMSO. 5× compound solutions were added to the culture medium to achieve desired final concentration (e.g. 100, 33, 11, 3.7, 1.2, 0.41, 0.14, 0.046, 0.015, 0.0051, 0.0017 μM). Final DMSO concentration was at 0.37%. Cells were incubated with compounds for 1 hour and then stimulated with gramicidin (5 μM) (Enzo) for 2 hours. Plates were then centrifuged at 340 g for 5 min. Cell free supernatant (40 μL) was collected using a 96-channel PlateMaster (Gilson) and the production of IL-1β was evaluated by HTRF (cisbio). […]

Setting [1] is: Homo sapiens, THP-1, hTHP-1 assay containing 2% fetal bovine serum, class symbols.
Where [2] appears, read: Homo sapiens, THP-1, hTHP-1 assay containing 2% fetal bovine serum, given as numeric bound.
Where [3] appears, read: hTHP-1 assay containing 2% fetal bovine serum, class symbols.

Read-outs that look alike come from different tables or passages of the source.

For orientation: IC50 means the concentration at which inhibition is half-maximal.

Consider `CC(C)c1cc(F)cc(C(C)C)c1CC(=O)NS(=N)(=O)c1ccc(C(C)(C)O)cc1` (single isomer, unassigned) [Example 2], for which the IC50 under setting [1] is 1 to 5 µM.
For the compound `CC(C)c1cc(F)cc(C(C)C)c1CC(=O)NS(=N)(=O)c1ccc(C(C)(C)O)cc1` (single isomer, unassigned) [Example 3], under setting [2], the IC50 is > 30 µM.
Turning to `CC(C)(O)c1cnc(S(=N)(=O)NC(=O)Cc2c3c(cc4c2CCC4)CCC3)s1` (single isomer, unassigned) [Example 5], the IC50 under setting [2] is > 30 µM.
As for `CC(C)(O)c1cnc(S(=N)(=O)NC(=O)Cc2c3c(cc4c2CCC4)CCC3)s1` (single isomer, unassigned) [Example 6], under setting [1], the IC50 fell in the range of 1 to 5 µM.
Same read-out and setting: then `CC(C)c1cc(F)cc(C(C)C)c1CC(=O)N[S@](=N)(=O)c1ncc(C(C)(C)O)s1` (single isomer, unassigned) [Example 8], with 1 to 5 µM; and `CC(C)c1cc(F)cc(C(C)C)c1CC(=O)N[S@@](=N)(=O)c1ncc(C(C)(C)O)s1` (single isomer, unassigned) [Example 9], with 0.2 to 1 µM.
For the compound `CC(C)c1cc(F)cc(C2CC2)c1CC(=O)N=S(N)(=O)c1ccc(CN(C)C)cc1` (single isomer, unassigned) [Example 46, (S)- or (R)-2-(2-cyclopropyl-4-fluoro-6-isopropylphenyl)-N-(4-((dimethylamino)methyl)phenyl-sulfonimidoyl)acetamide], the IC50 under setting [2] is > 30 µM.
As to `CC(C)c1cc(F)cc(C2CC2)c1CC(=O)N=S(N)(=O)c1ccc(CN(C)C)cc1` (single isomer, unassigned) [Example 47, (R)- or (S)-2-(2-cyclopropyl-4-fluoro-6-isopropylphenyl)-N-(4-((dimethylamino)methyl)phenyl-sulfonimidoyl)acetamide], the IC50 under setting [1] is 0.2 to 1 µM.
As for `CC(C)c1cc(F)cc(C(C)C)c1CC(=O)N=S(N)(=O)c1sc(C(C)(C)O)cc1F` (single isomer, unassigned) [Example 50, (S)- or (R)-2-(4-fluoro-2,6-diisopropylphenyl)-N-(3-fluoro-5-(2-hydroxypropan-2-yl)thiophen-2-ylsulfonimidoyl)acetamide], the IC50 under setting [3] is 0.008 to 0.04 µM.
Same read-out and setting: in the case of `CC(C)c1c(F)c(C#N)cc(C2CC2)c1CC(=O)N=S(N)(=O)c1sc(C(C)(C)O)cc1F` (single isomer, unassigned) [Example 54, (S)- or (R)-2-(4-cyano-6-cyclopropyl-3-fluoro-2-isopropylphenyl)-N-(3-fluoro-5-(2-hydroxypropan-2-yl)thiophen-2-ylsulfonimidoyl)acetamide] it was 0.008 to 0.04 µM; in that of `CC(C)c1cc(Cl)c(F)c(C2CC2)c1CC(=O)N=S(N)(=O)c1sc(C(C)(C)O)cc1F` (single isomer, unassigned) [Example 56, (S)- or (R)-2-(4-chloro-2-cyclopropyl-3-fluoro-6-isopropylphenyl)-N-(3-fluoro-5-(2-hydroxypropan-2-yl)thiophen-2-ylsulfonimidoyl)acetamide], 0.2 to 1 µM.
Turning to `CCc1cc(C#N)cc(C(C)C)c1CC(=O)N=S(N)(=O)c1ccc(CN(C)C)cc1` (single isomer, unassigned) [Example 58, (S)- or (R)-2-(4-cyano-2-ethyl-6-isopropylphenyl)-N-(4-((dimethylamino)methyl)phenyl-sulfonimidoyl)acetamide], the IC50 under setting [2] is > 30 µM.
Consider `CCc1cc(C#N)cc(C(C)C)c1CC(=O)N=S(N)(=O)c1ccc(CN(C)C)cc1` (single isomer, unassigned) [Example 59, (R)- or (S)-2-(4-cyano-2-ethyl-6-isopropylphenyl)-N-(4-((dimethylamino)methyl)phenyl-sulfonimidoyl)acetamide], for which the IC50 under setting [1] is 5 to 30 µM.
Same read-out and setting: in the case of `CC(C)c1cc(C#N)cc(C2CC2)c1CC(=O)N=S(N)(=O)c1ccc(CN(C)C)cc1F` (single isomer, unassigned) [Example 62, (S)- or (R)-2-(4-cyano-2-cyclopropyl-6-isopropylphenyl)-N-(4-((dimethylamino)methyl)-2-fluorophenylsulfonimidoyl) acetamide] it was 1 to 5 µM.
For the compound `CC(C)c1cc(C#N)cc(C2CC2)c1CC(=O)N=S(N)(=O)c1ccc(CN(C)C)cc1F` (single isomer, unassigned) [Example 63, (R)- or (S)-2-(4-cyano-2-cyclopropyl-6-isopropylphenyl)-N-(4-((dimethylamino)methyl)-2-fluorophenylsulfonimidoyl) acetamide], under setting [2], the IC50 is > 30 µM.
For the compound `CC(C)c1cc(C#N)cc(C(C)C)c1CC(=O)N=S(N)(=O)c1sc(C(C)(C)O)nc1CO` (single isomer, unassigned) [Example 64, (S)- or (R)-2-(4-cyano-2,6-diisopropylphenyl)-N-(4-(hydroxymethyl)-2-(2-hydroxypropan-2-yl)thiazol-5-ylsulfonimidoyl)acetamide], the IC50 under setting [3] was 0.2 to 1 µM.
With `CC(C)(O)c1nc(CO)c(S(N)(=O)=NC(=O)Cc2c3c(cc4c2CCC4)CCC3)s1` (single isomer, unassigned) [Example 66, (S)- or (R)-2-(1,2,3,5,6,7-hexahydros-indacen-4-yl)-N-(4-(hydroxymethyl)-2-(2-hydroxypropan-2-yl)thiazol-5-ylsulfonimidoyl)acetamide], the IC50 under setting [1] fell in the range of 0.2 to 1 µM.
As for `CC(C)(O)c1nc(CO)c(S(N)(=O)=NC(=O)Cc2c3c(cc4c2CCC4)CCC3)s1` (single isomer, unassigned) [Example 67, (R)- or (S)-2-(1,2,3,5,6,7-hexahydros-indacen-4-yl)-N-(4-(hydroxymethyl)-2-(2-hydroxypropan-2-yl)thiazol-5-ylsulfonimidoyl)acetamide], the IC50 under setting [2] was > 30 µM.
As to `COCc1cc(C(C)C)c(CC(=O)N=S(N)(=O)c2sc(C(C)(C)O)nc2CO)c(C(C)C)c1` (single isomer, unassigned) [Example 68, (S)- or (R)-2-(2,6-diisopropyl-4-(methoxymethyl)phenyl)-N-(4-(hydroxymethyl)-2-(2-hydroxypropan-2-yl)thiazol-5-ylsulfonimidoyl)acetamide], the IC50 under setting [3] was 0.2 to 1 µM.
As for `CC(C)c1cc(C#N)cc(C(C)C)c1CC(=O)N=S(N)(=O)c1ccc(CN(C)C)cc1` (single isomer, unassigned) [Example 72, (S)- or (R)-2-(4-cyano-2,6-diisopropylphenyl)-N-(4-((dimethylamino)methyl)phenyl-sulfonimidoyl)acetamide], the concentration for half-maximal inhibition (IC50) under setting [1] was 1 to 5 µM.
Regarding `CC(C)c1cc(C#N)cc(C(C)C)c1CC(=O)N=S(N)(=O)c1ccc(CN(C)C)cc1` (single isomer, unassigned) [Example 73, (R)- or (S)-2-(4-cyano-2,6-diisopropylphenyl)-N-(4-((dimethylamino)methyl)phenyl-sulfonimidoyl)acetamide], the half-inhibitory concentration (IC50) under setting [2] was > 30 µM.
On the same count and under the same terms, in the case of `CC(C)c1cc(C#N)cc(C2CC2)c1CC(=O)N=S(N)(=O)c1ccc(CN(C)C)cc1` (single isomer, unassigned) [Example 74, (S)- or (R)-2-(4-cyano-2-cyclopropyl-6-isopropylphenyl)-N-(4-((dimethylamino)methyl)phenyl-sulfonimidoyl)acetamide] it was > 30 µM.

These data come from patent US11370763B2, “Compounds and compositions for treating conditions associated with NLRP activity” (Novartis AG, priority 2017, dated 2022).
